Experimental data from PubChem BioAssay (NCI).
Several values for one entry are separate records, joined by “and”; a condition that tells them apart may be missing. Equal values may be shown once.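 Exposure lasted 48 hours, with cells grown in 96-well plates and compounds tested at five concentrations. GI50 marks 50% less growth. At the TGI there is no net growth.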

Key:
Experiment in all cases: NCI tumour cell line growth inhibition, 48 h
[1] = test system: NCI-H23 lung
[2] = test system: SK-MEL-2 melanoma
[3] = test system: HCT-15 colon
[4] = test system: CAKI-1 renal
[5] = test system: MOLT-4 leukemia
[6] = test system: SF-268 CNS
[7] = test system: HOP-92 NSCLC
[8] = test system: K-562 leukemia
[9] = test system: NCI-H460 lung
[10] = test system: RXF 393 renal

| SMILES | GI50 [1] [nM] | TGI [1] | GI50 [2] | TGI [2] | GI50 [3] | TGI [3] | GI50 [4] [µM] | TGI [4] | GI50 [5] [nM] | TGI [5] | GI50 [6] [µM] | TGI [6] | GI50 [7] [µM] | TGI [7] | GI50 [8] | TGI [8] | GI50 [9] [nM] | TGI [9] | GI50 [10] [nM] | TGI [10] |
| --- | --- | --- | --- | --- | --- | --- | --- | --- | --- | --- | --- | --- | --- | --- | --- | --- | --- | --- | --- | --- |
| COc1ccccc1/C=C/C(=O)c1ccccc1 | 15200 | 36.6 µM | 12000 nM | 26.4 µM | 3470 nM | 14.7 µM | 6.3 | 18.6 µM | 2920 | > 36.6 µM | 13.1 | 27 µM | 6.3 | 30.7 µM | 3410 nM | > 100 µM | 13700 | 31.9 µM | 5940 | 16.1 µM |
| COc1cc(/C=C2\C(=O)Nc3ccc(N(C)C)cc32)cc(OC)c1OC | 3070 | > 100 µM | 2770 nM | 8.31 µM | 1230 nM | 49.8 µM | 5.78 | > 80.5 µM | 2870 | > 30.9 µM | 3.92 | 33.1 µM | 3.17 | 36.3 µM | 580 nM | > 25.6 µM | 2980 | > 29.1 µM | 240 | 1.28 µM |
| COc1cc(-c2cn(-c3ccc(Cl)c(Cl)c3)c(=O)n2C(C)=O)cc(OC)c1OC | – | – | 10600 nM | 25.3 µM | 18100 nM | 45.9 µM | 11.5 | 33.5 µM | 14700 | 31.6 µM | 6.92 | 30 µM | 3.42 | 16.8 µM | 16100 nM | > 100 µM | 10500 | 25.1 µM | 3340 | 14.9 µM |
| Cn1c2c(c3ccc(Cl)c(Cl)c31)C(C#N)C1(CCNCC1)NC2=O (stereo unspecified) | 2720 | 9.22 µM | 2120 nM | 4.73 µM | 2400 nM | 7.88 µM | 0.384 | 1.75 µM | 1230 | 2.7 µM | 1.77 | 4.89 µM | 0.484 | 2.37 µM | 1470 nM | 2.89 µM | 1710 | 3.79 µM | 1520 | 5.79 µM |
| Cc1cc(Cl)ccc1Nc1nc(C(F)(F)F)ccc1C(=O)N/N=C/c1ccc([N+](=O)[O-])cc1 | 1650 | > 22 µM | 1920 nM | 8.5 µM | 803 nM | – | 2.24 | 11.4 µM | – | > 20 µM | 0.86 | 5.45 µM | 1.34 | 5.47 µM | 1430 nM | > 24.8 µM | 2280 | 7.45 µM | 781 | 3.22 µM |
| CC(=O)NC(CCCCNC(=O)NCCCl)C(=O)NCc1ccccc1 (stereo unspecified) | – | > 100 µM | – | > 100 µM | – | > 100 µM | – | > 100 µM | – | > 100 µM | – | > 100 µM | – | > 100 µM | – | > 100 µM | – | > 100 µM | – | > 100 µM |
| C/C(CCc1ccccc1)=N\NC(N)=S | – | > 100 µM | – | > 100 µM | – | > 100 µM | – | > 100 µM | – | > 100 µM | – | > 100 µM | – | > 100 µM | – | > 100 µM | – | > 100 µM | – | > 100 µM |
| COc1ccc(Cn2c3c(cc(OS(=O)(=O)C(F)(F)F)c2=O)Cc2ccccc2-3)cc1 | 8260 | 50 µM and > 100 µM | 14500 nM | 50 µM and > 100 µM | – | 50 µM and > 100 µM | 53 | 50 µM and > 100 µM | 4180 | 50 µM and > 100 µM | 8.54 | 50 µM and > 100 µM | 17.6 | 50 µM and > 100 µM | 5100 nM | 50 µM and > 100 µM | – | 50 µM and 36.4 µM | – | 50 µM and > 100 µM |
| NCCCCNc1ccc2c(=O)[nH][nH]c(=O)c2c1 | – | > 100 µM | – | > 100 µM | – | – | – | > 100 µM | – | > 100 µM | – | > 100 µM | – | > 100 µM | – | > 100 µM | – | – | – | > 100 µM |
| COC(=O)C(CC(=O)Nc1ccc(C)cc1)C(=O)C(=O)Nc1ccccc1C(C)C (stereo unspecified) | – | > 100 µM | – | > 100 µM | – | > 100 µM | – | > 100 µM | – | > 100 µM | – | > 100 µM | – | > 100 µM | – | > 100 µM | – | > 100 µM | – | > 100 µM |
| CCC[n+]1cc2cc(OC)c(OC)cc2c2c1-c1cc3c(cc1C2)OCO3 | 2340 | 13.2 µM | 2650 nM | 9.18 µM | 46900 nM | > 100 µM | 7.14 | 44.2 µM | 1920 | 11.4 µM | 0.568 | 5.84 µM | 10.1 | 40.6 µM | 3030 nM | > 20.5 µM | 2980 | 11.3 µM | 17000 | 35.7 µM |
| Cc1cc(S(=O)(=O)NC#N)c(S/C(=N\Nc2ccc([N+](=O)[O-])cc2)c2ccc(Cl)cc2)cc1Cl | 77900 | > 100 µM | > 100000 nM | > 100 µM | 11600 nM | 59.7 µM | 36.1 | > 100 µM | 19500 | > 100 µM | 26 | > 100 µM | 19.4 | 96.9 µM | 35300 nM | 80.3 µM | 26700 | > 100 µM | 34400 | > 100 µM |
| C/C=C1\NC(=O)[C@H]2CSSCCC=C[C@H](CC(=O)N[C@H](C(C)C)C(=O)N2)OC(=O)[C@H](C(C)C)NC1=O | < 10 | – | < 10 nM and 0.0954 nM | – | 203 nM and 55.1 nM | 3.75 µM and 1.59 µM | < 0.0339 | 0.0772 µM and 0.0244 µM and < 0.0104 µM | < 10 | – | < 0.01 | 0.0206 µM and 0.0401 µM | < 0.01 | < 0.01 µM and 0.0161 µM and < 0.0324 µM | < 10 nM and 0.147 nM | – | < 10 | – | < 10 | 0.0101 µM and 0.00253 µM |
| Fc1cc2[nH]ncc2c2c3c(c(-c4cn[nH]c4C(F)(F)F)nc12)C1CCC3C1 (stereo unspecified) | 1270 | 6 µM | 1570 nM | 4.2 µM | 1330 nM | 7.28 µM | 0.602 | 3.51 µM | 990 | 4.31 µM | 1.16 | 4.64 µM | 0.885 | 3.04 µM | 1610 nM | > 50 µM | 1150 | 5.5 µM | 345 | 1.12 µM |
| CCN(CC)C(=S)Oc1cc2oc(=O)cc(C)c2cc1Cl | – | > 100 µM | – | > 100 µM | – | > 100 µM | – | > 100 µM | – | > 100 µM | – | > 100 µM | – | > 100 µM | – | > 100 µM | – | > 100 µM | – | > 100 µM |
